Patent US20150065456A1, “AGENT FOR TREATMENT AND PREVENTION OF CANCER” (Daiichi Sankyo Company, Limited, priority 2013, published 2015)
Where two headings read alike, the source gives them in different places.

Key:
[1] = system: subjects with symptomatic venous thromboembolism (VTE); assay: Hokusai VTE phase 3 clinical study: investigator-reported malignancies clinically evident post-randomization; type: in vivo, human; conditions: for All Subjects with a Malignancy Event, HR: edoxaban vs warfarin, Cox proportional hazards model
Experimental: The study was a randomized, double-blind, clinical study, in which subjects with symptomatic venous thromboembolism (VTE), which included PE, with or without deep venous thrombosis (DVT), or DVT only, were treated with either edoxaban or warfarin, a Vitamin K antagonist, which is an indirect inhibitor of coagulation. […] The subjects participating in the study were adult male and female patients presenting with acute, symptomatic DVT involving popliteal, femoral, or ileac veins, or PE requiring anti-thrombotic therapy. Patients with various types of cancer were among the subjects who were treated in this study, so long as long term treatment with heparin was not anticipated as a treatment regimen for such patients. This clinical study is named Hokusai-VTE and is the largest single phase 3 clinical study in the treatment and prevention of recurrence of VTE using an FXa inhibitor such as edoxaban. More than 8,250 patients were enrolled in the study from more than 400 clinical sites across 38 countries worldwide. The Hokusai-VTE clinical study was designed to reflect clinical practice, using a standard heparin lead-in and providing a flexible treatment duration of three, six or twelve months. This study design allowed the evaluation of patients with a broad range of risks, including patients with moderate or severe conditions of PE and DVT. […] (See, Example 1, infra).
The study (Hokusai VTE Clinical Study) constituted a phase 3, randomized, double-blind, double-dummy, parallel-group, multi-center, multi-national study for the evaluation of efficacy and safety of (LMW) heparin/edoxaban versus (LMW) heparin/warfarin in subjects with symptomatic deep-vein thrombosis and/or pulmonary embolism. The study indication related to the reduction of the risk of symptomatic recurrent venous thromboembolic complications in patients with acute symptomatic deep vein thrombosis (DVT) and/or pulmonary embolism (PE). […] Accordingly, the nature of the study was the use of edoxaban as direct inhibitor of Factor Xa in the treatment of VTE.
Following stratification and treatment allocation as described above, all patients were randomized to either a standard of care (SOC) treatment regimen, i.e., heparin+warfarin, until the international normalized ratio (INR) was between 2-3, followed by warfarin alone; or an edoxaban treatment regimen, i.e., heparin for 5 days followed by edoxaban (as the free base) at a dose of 60-mg QD (or 30-mg QD, in the low exposure group). This study aimed to treat all patients for the entire 12 month period following randomization. Ultimately, the evolving nature of the patient's clinical status and changes in the risk/benefit over time determined the length of treatment for a given patient. Irrespective of actual treatment duration, all patients were followed for the entire 12 months after randomization.
Edoxaban was administered in 30 and 60 mg dose-strengths in tablet form. Warfarin was administered in 1, 2.5 and 5 mg dose-strengths. Matching placebos were used for each of the test drugs. Edoxaban and warfarin were administered orally (PO). Enoxaparin was administered by subcutaneous (SC) injection.
The study was an event-driven, Phase 3, multi-national, multi-center, randomized, double-blind, matching placebo, parallel-group non-inferiority study for efficacy. The total study period after randomization was 12 months in duration. Ideally, all subjects remained on study treatment throughout this period. However, mitigating factors related to the subject's clinical status could influence the total duration of treatment a given subject actually received (See, Treatment Arms, below). Nevertheless, all subjects were administered a minimum of three months' treatment consistent with current ACCP Guidelines.

[2] = monkeys; cited from earlier work
[3] = cited from earlier work
[4] = rats; cited from earlier work
[5] = Overall Study Period (up to 12 months)

| Structure (SMILES) | All Subjects with a Malignancy Event, (%) ([1]; On-Treatment Study Period) | Leukemia, Lymphoma, and Other Blood Malignancies, (%) ([1]; On-Treatment Study Period) | Malignancy diagnosed as a result of work-up for anemia or bleeding: No, (%) ([1]; On-Treatment Study Period) | Malignancy diagnosed as a result of work-up for anemia or bleeding: Yes, (%) ([1]; On-Treatment Study Period) | Solid Tumor, (%) ([1]; On-Treatment Study Period) | All Subjects with a Malignancy Event, (%) [1, 5] | Leukemia, Lymphoma, and Other Blood Malignancies, (%) [1, 5] | Malignancy diagnosed as a result of work-up for anemia or bleeding: No, (%) [1, 5] | Malignancy diagnosed as a result of work-up for anemia or bleeding: Yes, (%) [1, 5] | Solid Tumor, (%) [1, 5] | All Subjects with a Malignancy Event, (%) ([1]; Treatment+30 Days Study Period) | Leukemia, Lymphoma, and Other Blood Malignancies, (%) ([1]; Treatment+30 Days Study Period) | Malignancy diagnosed as a result of work-up for anemia or bleeding: No, (%) ([1]; Treatment+30 Days Study Period) | Malignancy diagnosed as a result of work-up for anemia or bleeding: Yes, (%) ([1]; Treatment+30 Days Study Period) | Solid Tumor, (%) ([1]; Treatment+30 Days Study Period) | also measured |
| --- | --- | --- | --- | --- | --- | --- | --- | --- | --- | --- | --- | --- | --- | --- | --- | --- |
| CN1CCc2nc(C(=O)N[C@@H]3C[C@@H](C(=O)N(C)C)CC[C@@H]3NC(=O)C(=O)Nc3ccc(Cl)cn3)sc2C1 [Edoxaban] | (1.6) % | (<0.1) % | (1.4) % | (0.2) % | (1.5) % | (2.8) % | (0.2) % | (2.2) % | (0.6) % | (2.7) % | (2.4) % | (0.1) % | (1.8) % | (0.6) % | (2.3) % | Kaplan-Meier cumulative incidence (%) of new or recurrent malignancies versus warfarin-treated subjects ([1]; FIG. 1, treatment +30 days study period, 390 days from initial study drug administration): significant decrease; Kaplan-Meier cumulative incidence (%) of new or recurrent malignancies versus warfarin-treated subjects ([1]; FIG. 2, overall study period, about 360 days from initial study drug administration): significant decrease; All Subjects with a Malignancy Event, HR ([1]; On-Treatment Study Period): 0.73; All Subjects with a Malignancy Event, HR ([1]; Overall Study Period): 0.85; All Subjects with a Malignancy Event, HR ([1]; Treatment+30 Days Study Period): 0.84; oral bioavailability [2]: orally bioavailable; safety and tolerability ([3]; doses of up to 90-mg per day): generally safe and well tolerated; oral bioavailability ([3]; human subjects): orally bioavailable; oral bioavailability [4]: orally bioavailable |
| CC(=O)CC(c1ccccc1)c1c(O)c2ccccc2oc1=O (stereo not drawn) [Warfarin, warfarin, reference compound] | 2.2% | 0.1% | 1.9% | 0.2% | 2.0% | 3.3% | 0.2% | 2.8% | 0.5% | 3.1% | 2.9% | 0.2% | 2.4% | 0.5% | 2.6% |  |
